# Measured values as given in ChEMBL document CHEMBL1201862, “PubChem BioAssay data set” (2004).
#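 96-well plates; 48 h exposure; 5 concentrations. Endpoints by linear interpolation between flanking doses. Not reached: highest tested concentration assigned. Here, GI50 denotes the concentration required for 50% inhibition of growth.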 Activity calls are given as the source filed them. No stated cut-off is given here; in the data, active = GI50 up to about 1.1 µM and inactive = higher.
# Assays:
# Assay in all cases: inhibition of tumour cell growth, NCI panel, 48 h
# SR = system: SR
# HT-29 = system: HT-29
# U-251 = system: U-251
# HL-60 = system: HL-60
# NCI-H226 = system: NCI-H226
# NCI/ADR-RES = system: NCI/ADR-RES
# KM12 = system: KM12
# HCT-15 = system: HCT-15
# 786-0 = system: 786-0
# A498 = system: A498
# SNB-19 = system: SNB-19
# OVCAR-4 = system: OVCAR-4
# NCI-H460 = system: NCI-H460
# SN12C = system: SN12C
# RXF 393 = system: RXF 393
# CAKI-1 = system: CAKI-1
# MOLT-4 = system: MOLT-4
# CCRF-CEM = system: CCRF-CEM
# IGROV-1 = system: IGROV-1
# Hs-578T = system: Hs-578T
# COLO 205 = system: COLO 205
# LOX IMVI = system: LOX IMVI
# PC-3 = system: PC-3
# HCT-116 = system: HCT-116
# MCF7 = system: MCF7
# K562 = system: K562
# DU-145 = system: DU-145
# SNB-75 = system: SNB-75
# TK-10 = system: TK-10
# UACC-257 = system: UACC-257
# SK-MEL-28 = system: SK-MEL-28
# MDA-MB-231 = system: MDA-MB-231
# UO-31 = system: UO-31
# OVCAR-3 = system: OVCAR-3
# SW-620 = system: SW-620
# M14 = system: M14
# SF-539 = system: SF-539
# SK-MEL-2 = system: SK-MEL-2
# Malme-3M = system: Malme-3M
# SK-OV-3 = system: SK-OV-3
# NCI-H23 = system: NCI-H23
# MDA-MB-435 = system: MDA-MB-435
# SK-MEL-5 = system: SK-MEL-5
# MDA-N = system: MDA-N
# RPMI-8226 = system: RPMI-8226
# A549 = system: A549
# HOP-92 = system: HOP-92
# BT-549 = system: BT-549
# OVCAR-8 = system: OVCAR-8
# UACC-62 = system: UACC-62
# HOP-62 = system: HOP-62
# SF-268 = system: SF-268
# SF-295 = system: SF-295
# EKVX = system: EKVX
# T47D = system: T47D
# ACHN = system: ACHN
# NCI-H522 = system: NCI-H522
# OVCAR-5 = system: OVCAR-5
smiles,measurement,setting,value
COC(=O)c1c(O)ccc2c1c1c(n2CCc2ccccc2)C(=O)c2ccccc2C1,GI50,SR,29.7 µM (inactive)
same,GI50,HT-29,24.4 µM (inactive)
same,GI50,U-251,21.9 µM (inactive)
same,GI50,HL-60,28.9 µM (inactive)
same,GI50,NCI-H226,16.3 µM (inactive)
same,GI50,NCI/ADR-RES,19.7 µM (inactive)
same,GI50,KM12,31.8 µM (inactive)
same,GI50,HCT-15,19.7 µM
same,GI50,786-0,17 µM (inactive)
same,GI50,A498,19.2 µM (inactive)
same,GI50,SNB-19,24.8 µM (inactive)
same,GI50,OVCAR-4,10.7 µM (inactive)
same,GI50,NCI-H460,16.7 µM (inactive)
same,GI50,SN12C,14.7 µM (inactive)
same,GI50,RXF 393,13.3 µM (inactive)
same,GI50,CAKI-1,17.2 µM (inactive)
same,GI50,MOLT-4,38.3 µM (inactive)
same,GI50,CCRF-CEM,21.4 µM (inactive)
same,GI50,IGROV-1,19.6 µM (inactive)
same,GI50,Hs-578T,29.7 µM (inactive)
same,GI50,COLO 205,14.6 µM (inactive)
same,GI50,LOX IMVI,30.1 µM (inactive)
same,GI50,PC-3,16.8 µM (inactive)
same,GI50,HCT-116,15.3 µM (inactive)
same,GI50,MCF7,14.2 µM (inactive)
same,GI50,K562,37.6 µM (inactive)
same,GI50,DU-145,31.8 µM (inactive)
same,GI50,SNB-75,26.4 µM (inactive)
same,GI50,TK-10,34.3 µM (inactive)
same,GI50,UACC-257,18.5 µM (inactive)
same,GI50,SK-MEL-28,19.5 µM (inactive)
same,GI50,MDA-MB-231,19.5 µM (inactive)
same,GI50,UO-31,20.7 µM (inactive)
same,GI50,OVCAR-3,16.1 µM (inactive)
same,GI50,SW-620,30.1 µM (inactive)
same,GI50,M14,22.3 µM (inactive)
same,GI50,SF-539,24.8 µM (inactive)
same,GI50,SK-MEL-2,15.8 µM (inactive)
same,GI50,Malme-3M,32.3 µM (inactive)
same,GI50,SK-OV-3,22.5 µM (inactive)
same,GI50,NCI-H23,20.7 µM (inactive)
same,GI50,MDA-MB-435,18.2 µM (inactive)
same,GI50,SK-MEL-5,17.6 µM (inactive)
same,GI50,MDA-N,24.4 µM (inactive)
same,GI50,RPMI-8226,11.7 µM (inactive)
same,GI50,A549,23.5 µM (inactive)
same,GI50,HOP-92,10.9 µM (inactive)
same,GI50,BT-549,24.4 µM (inactive)
same,GI50,OVCAR-8,36.3 µM (inactive)
same,GI50,UACC-62,14.4 µM (inactive)
same,GI50,HOP-62,21.2 µM (inactive)
same,GI50,SF-268,13.7 µM (inactive)
COc1cc2nc(-c3cccs3)[nH]c(=O)c2cc1OC,GI50,SR,13.8 µM (inactive)
same,GI50,HT-29,> 100 µM (inactive)
same,GI50,U-251,61.7 µM (inactive)
same,GI50,HL-60,35.4 µM (inactive)
same,GI50,NCI-H226,> 100 µM (inactive)
same,GI50,SF-295,86.7 µM (inactive)
same,GI50,NCI/ADR-RES,> 100 µM (inactive)
same,GI50,KM12,> 100 µM (inactive)
same,GI50,HCT-15,> 100 µM
same,GI50,786-0,> 100 µM (inactive)
same,GI50,A498,> 100 µM (inactive)
same,GI50,SNB-19,> 100 µM (inactive)
same,GI50,OVCAR-4,> 100 µM (inactive)
same,GI50,NCI-H460,> 100 µM (inactive)
same,GI50,SN12C,> 100 µM (inactive)
same,GI50,RXF 393,> 100 µM (inactive)
same,GI50,CAKI-1,> 100 µM (inactive)
same,GI50,CCRF-CEM,36.6 µM (inactive)
same,GI50,IGROV-1,19.9 µM (inactive)
same,GI50,Hs-578T,> 100 µM (inactive)
same,GI50,COLO 205,> 100 µM (inactive)
same,GI50,LOX IMVI,> 100 µM (inactive)
same,GI50,EKVX,> 100 µM (inactive)
same,GI50,PC-3,> 100 µM (inactive)
same,GI50,HCT-116,70.6 µM (inactive)
same,GI50,MCF7,> 100 µM (inactive)
same,GI50,K562,> 100 µM (inactive)
same,GI50,DU-145,> 100 µM (inactive)
same,GI50,T47D,> 100 µM (inactive)
same,GI50,SNB-75,> 100 µM (inactive)
same,GI50,TK-10,> 100 µM (inactive)
same,GI50,UACC-257,> 100 µM (inactive)
same,GI50,SK-MEL-28,> 100 µM (inactive)
same,GI50,MDA-MB-231,23.2 µM (inactive)
same,GI50,UO-31,> 100 µM (inactive)
same,GI50,OVCAR-3,> 100 µM (inactive)
same,GI50,SW-620,> 100 µM (inactive)
same,GI50,M14,> 100 µM (inactive)
same,GI50,ACHN,> 100 µM (inactive)
same,GI50,SF-539,38.7 µM (inactive)
same,GI50,SK-MEL-2,> 100 µM (inactive)
same,GI50,Malme-3M,> 100 µM (inactive)
same,GI50,SK-OV-3,> 100 µM (inactive)
same,GI50,NCI-H23,> 100 µM (inactive)
same,GI50,MDA-MB-435,> 100 µM (inactive)
same,GI50,SK-MEL-5,> 100 µM (inactive)
same,GI50,RPMI-8226,65.5 µM (inactive)
same,GI50,A549,> 100 µM (inactive)
same,GI50,HOP-92,> 100 µM (inactive)
same,GI50,NCI-H522,> 100 µM (inactive)
same,GI50,BT-549,> 100 µM (inactive)
same,GI50,OVCAR-8,> 100 µM (inactive)
same,GI50,OVCAR-5,28.6 µM (inactive)
same,GI50,UACC-62,> 100 µM (inactive)
same,GI50,HOP-62,> 100 µM (inactive)
same,GI50,SF-268,> 100 µM (inactive)
